Patent publication US20200289480A1, “PERGOLIDE FOR USE IN THE TREATMENT OF EYE DISEASES ASSOCIATED WITH AN ELEVATED LEVEL OF VASCULAR ENDOTHELIAL GROWTH FACTOR (VEGF) AND PHARMACEUTICAL COMPOSITION CONTAINING PERGOLIDE” (priority 2017, published 2020)

How the values were obtained:
[1] = system: development of normal blood vessels; test: zebrafish embryo model, development of normal blood vessels; assay type: in vivo, zebrafish (Danio rerio); settings: for effect on the development of normal blood vessels: lower concentrations (below 2.5 μmol: 50 nmol, 100 nmol, 500 nmol, 1 μmol)
Method: (§1) In studies on the effect of various substances on VEGF release and action, among others, a laboratory model using zebrafish (Danio rerio) is employed. The study tested 3 substances with potential inhibitory activity towards VEGF release and action which belong to the group of dopaminergic receptor D2 agonists—bromocriptine, cabergoline and pergolide. The study was conducted on the model using transgenic zebrafish embryos (Zebrafish Fli strain) with labelled blood system, illuminating under the fluorescent microscope. Photographic documentation was collected using Stereo Discover v8 fluorescent microscope, fluorescence 200c hxp, from Carl Zeiss Microscopy GmbH. During the study, the development of normal blood vessels and pathological blood vessels (abnormal angiogenesis) was observed. Abnormal angiogenesis was induced with the use of cobalt chloride (CoCl2) in a dose of 5 mM which was administered to the culture medium. The study tested the inhibitory effect of bromocriptine, cabergoline and pergolide on the development of normal blood vessels, as well as the inhibition of abnormal angiogenesis in 5 increasing concentrations of these substances: 50 nmol, 100 nmol, 500 nmol, 1 μmol, 2.5 μmol, dissolved in dimethyl sulfoxide (DMSO) and administered to the culture medium. Any changes in the development of natural (FIG. 1) and pathological blood vessels (FIG. 2) were recorded 72 an 96 hours after the administration of a tested substance and a tested substance with CoCl2, respectively. The level of inhibition of normal and pathological blood vessels development in tested embryos was compared to the activity of bevacizumab (Avastin) at the concentration of 2.5 μg/ml, which is an anti-VEGF recombinant humanised monoclonal antibody (FIGS. 3).

[2] = system: pathological blood vessels (abnormal angiogenesis) induced with CoCl2; test: zebrafish embryo model, CoCl2-induced abnormal angiogenesis; assay type: in vivo, zebrafish (Danio rerio); settings: for effect on the development of pathological blood vessels: lower concentrations (below 2.5 μmol: 50 nmol, 100 nmol, 500 nmol, 1 μmol); for effect on the development of pathological blood vessels / inhibition of growth of pathological eye blood vessels / inhibition of growth of ventral vessels: CoCl2 5 mM; for inhibitory effect compared with other agents: qualitative comparison in the angiogenesis model
Method: as §1, with “3). 72 and 96 after CoCl2 administration, the increase in the number of pathological eye blood vessels and the abnormal morphology thereof in the eyes (FIG. 2) as well as of ventral vessels (FIGS. 4 and 5) was observed.” for “3).”

[3] = 2.5 μmol in culture medium, transgenic Zebrafish Fli embryos, recorded 72 and 96 hours
[4] = 2.5 μmol in culture medium, recorded 72 and 96 hours

Row | Molecule | effect on the development of normal blood vessels [1] | effect on the development of pathological blood vessels [2] | inhibition of growth of normal eye blood vessels [1, 3] | inhibition of growth of pathological eye blood vessels [2, 4] | inhibition of growth of ventral vessels [2, 4] | inhibition of abnormal ventral vessels growth ([2]; 2.5 μmol, 72 hours, FIG. 8) | effect on the development of ventral vessels ([2]; lower concentrations (below 2.5 μmol)) | inhibitory effect compared with other agents [2] | inhibition of growth of normal eye blood vessels ([1]; 1.0 μmol in culture medium) | inhibition of normal ventral vessels growth ([1]; 1 μmol, 72 hours, FIG. 9) | inhibition of growth of pathological eye blood vessels ([2]; 1.0 μmol in culture medium) | inhibition of growth of ventral vessels ([2]; 1.0 μmol in culture medium) | inhibitory effect on the development of normal and pathological blood vessels (overall conclusion) ([2]; conclusion from all concentrations tested) | inhibition of CoCl2-induced abnormal vascular growth (eye) ([2]; 2.5 μmol, 96 hours, FIG. 3)
1 | CC(C)C[C@H]1C(=O)N2CCC[C@H]2[C@]2(O)O[C@](NC(=O)[C@@H]3C=C4c5cccc6[nH]c(Br)c(c56)C[C@H]4N(C)C3)(C(C)C)C(=O)N12 [bromocriptine] | no inhibitory effect | no inhibitory effect | – | – | – | – | – | – | – | – | – | – | – | –
2 | C=CCN1C[C@H](C(=O)N(CCCN(C)C)C(=O)NCC)C[C@@H]2c3cccc4[nH]cc(c34)C[C@H]21 [cabergoline] | no significant effect | no significant effect | partial inhibition | full inhibition | full inhibition | Full inhibition | no significant effect | more potent compared to bromocriptine | – | – | – | – | – | –
3 | CCCN1C[C@H](CSC)C[C@@H]2c3cccc4[nH]cc(c34)C[C@H]21 [pergolide] | – | – | full inhibition | full inhibition | full inhibition | – | – | more potent than for known agents | partial inhibition | Partial inhibition | full inhibition | full inhibition | potent inhibitory effect | –
4 | bevacizumab | – | – | – | – | – | – | – | – | – | – | – | – | – | Inhibition
